Test results published in patent US4563476A, “Substituted 5-hydroxy-2,3-dihydrobenzofurans and analogs thereof useful as anti-inflammatory agents” (Merck & Co., Inc., priority 1983, dated 1986).

How the values were obtained:
[1] = system: inflammatory responses elicited by topically applied phorbol myristate acetate (PMA) or topically applied arachidonic acid (AA); assay: Topical mouse ear assay (TME), edema by wet weight; assay type: in vivo, mice; details: PMA or AA not specified
Procedure: The topical mouse ear assay (TME) is the method by which the novel compounds of the present invention are evaluated for its effect on inflammatory responses elicited by topically applied phorbol myristate acetate (PMA) or topically applied arachidonic acid (AA). The inflammatory responses may be in the form of edema (measured by wet weight); vascular permeability (measured by ^125 I-BSA accumulation); or PMN infiltration (measured by myeloperoxidase activity).
Method: The right ears of mice (5 mice per group) were treated topically with either […] or 1000 μg AA alone or with the test compound in 25 μl of vehicle. The vehicle was water/pyridine/acetone (1:2:97). A control group of mice received the vehicle only. The mice were allowed food and water ad libitum during the treatment period; 2 hours for AA and 4 hours for PMA. The mice were sacrificed by cervical dislocation and a 6 mm diameter disc of tissue punched from both the treated and untreated ears. The tissue biopsies were immediately weighed and the weight increase of the treated ear relative to the weight of the untreated ear determined.
For the determination of vascular permeability, […] ^125 I-bovine serum albumin (^125 I-BSA) was administered in 0.5 ml phosphate buffered saline 15 min prior to the topical application. At the termination of the experiment, the amount of radioactivity in both the treated and untreated ear biopsies was determined and the increased amount of radioactivity in the treated tissue relative to the amount of radioactive in the untreated tissue determined.
As a measure of PMN infiltration, the amount of myeloperoxidase (MPO) activity in the same tissues was determined. The tissue biopsies were homogenized into 1 ml 0.5% hexadecyltrimethylammonium bromide and centrifuged for 45 min. at 1200×g. Aliquots 40 μl, of the supernatant phases were assayed for MPO activity by a colorimetric method devised by H. Dougherty for automated Titertek analysis. The MPO activity is expressed as the OD450 of the treated ear homogenate minus the OD450 of the non-treated ear homogenate.
All of the data are expressed as the mean ±SEM, N=5 mice/group.

[2] = system: inflammatory responses elicited by topically applied phorbol myristate acetate (PMA) or topically applied arachidonic acid (AA); details: previously established; cited from earlier work

Row | Structure (SMILES) | Edema (% inhibition) ([1]; Dosage 50 μg) [%] | Edema (% inhibition) ([1]; Dosage 100 μg) [%] | Edema (% inhibition) ([1]; Dosage 200 μg) [%] | Edema (% inhibition) ([1]; Dosage 400 μg) [%] | activity in the topical mouse ear assay [2]
1 | CC(=O)c1ccc(NCc2cc3c(cc2O)CCO3)cc1 [A, 5-Hydroxy-6-(4-acetylphenyl)aminomethyl-2,3-dihydrobenzofuran] | 44 | 45 | 60 | 76 | 
2 | COc1ccc2c(c1)c(CC(=O)O)c(C)n2C(=O)c1ccc(Cl)cc1 [Indomethacin, indomethacin] | 24 | 42 | 46 | 85 | active
3 | C[C@@H]1C[C@H]2[C@@H]3CCC4=CC(=O)C=C[C@]4(C)[C@@]3(F)[C@@H](O)C[C@]2(C)[C@@]1(O)C(=O)CO [dexamethasone] |  |  |  |  | active
